# Laboratory results published in patent publication US8992996B2, “Cosmetic” (Restorsea, LLC, priority 2012, dated 2015).
# System: follicles (microcomedones)
# Set-up: species or system human
# Details: in vivo
# Description: A study is conducted to determine the comedogenic potential of test materials in the form of day cream and eye cream with formulations disclosed above by assessing whether the test materials elicited microcomedones, after four weeks of repeated application under occlusive patch conditions, relative to a negative control (undosed patch). Acetylated Lanolin Alcohol served as a positive control material in order to validate the study. The tests are conducted during a 4 week study period. A total of 15 subjects, ranging in age from 22 to 45 years, are selected for the study. All 15 participants completed the study.
substance,measurement,value
Acetylated Lanolin Alcohol,average ratio of microcomedones per follicle,6%
same,ratio of microcomedones to follicles compared with negative control (statistics),significantly greater ratio than the negative control
